Like-named read-outs stand apart in the source and are kept apart here.
Legend:
[1] = target: T1, MOR (Rattus norvegicus, UniProt P33535); experiment: Opioid receptor binding, MOR, rat brain membranes
T1 construct: from tissue

[2] = target: T2, DOR (Rattus norvegicus, UniProt P33533); experiment: Opioid receptor binding, DOR, rat brain membranes
T2 construct: from tissue

[3] = target: T3, KOR (Cavia porcellus, UniProt P41144); experiment: Opioid receptor binding, KOR, guinea pig brain membranes
T3 construct: from tissue
T3 sequence (P41144 whole entry): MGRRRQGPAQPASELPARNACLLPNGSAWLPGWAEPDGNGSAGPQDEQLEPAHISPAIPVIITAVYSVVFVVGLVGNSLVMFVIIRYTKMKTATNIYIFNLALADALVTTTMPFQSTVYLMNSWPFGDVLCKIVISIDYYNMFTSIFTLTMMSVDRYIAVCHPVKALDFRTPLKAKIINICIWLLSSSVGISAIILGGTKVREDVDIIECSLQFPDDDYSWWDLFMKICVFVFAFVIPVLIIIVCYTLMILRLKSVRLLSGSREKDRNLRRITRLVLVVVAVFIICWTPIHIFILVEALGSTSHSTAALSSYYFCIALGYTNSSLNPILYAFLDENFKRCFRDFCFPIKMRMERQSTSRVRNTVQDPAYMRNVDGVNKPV

[4] = Binding Ki MOR, Table 2-6, rat brain membranes
[5] = Binding Ki DOR, Table 2-6, rat brain membranes
[6] = Binding Ki KOR, Table 2-6, guinea pig brain membranes
[7] = Binding Ki (nM) MOR, in vitro binding assay, rat brain membranes
[8] = Binding Ki MOR, Table 1-4, rat brain membranes
[9] = Binding Ki (nM) DOR, in vitro binding assay, rat brain membranes
[10] = Binding Ki DOR, Table 1-4, rat brain membranes
[11] = Binding Ki (nM) KOR, in vitro binding assay, guinea pig brain membranes
[12] = Binding Ki KOR, Table 1-4, guinea pig brain membranes
[13] = in vitro binding assay, rat brain membranes, read-out: Binding Ki (nM) MOR
[14] = in vitro binding assay, rat brain membranes, read-out: Binding Ki (nM) DOR
[15] = in vitro binding assay, guinea pig brain membranes, read-out: Binding Ki (nM) KOR

T2 sequence (P33533 whole entry): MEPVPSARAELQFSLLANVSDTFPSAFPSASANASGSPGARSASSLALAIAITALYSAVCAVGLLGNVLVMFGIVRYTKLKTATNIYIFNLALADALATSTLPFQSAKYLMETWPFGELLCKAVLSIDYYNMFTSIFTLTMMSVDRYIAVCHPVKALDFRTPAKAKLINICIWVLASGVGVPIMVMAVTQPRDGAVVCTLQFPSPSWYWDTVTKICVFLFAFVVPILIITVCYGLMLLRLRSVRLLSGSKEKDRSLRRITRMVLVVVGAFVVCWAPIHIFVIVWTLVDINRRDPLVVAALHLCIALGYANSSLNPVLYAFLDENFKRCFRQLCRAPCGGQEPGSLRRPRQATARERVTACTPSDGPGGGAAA
T1 sequence (P33535 whole entry): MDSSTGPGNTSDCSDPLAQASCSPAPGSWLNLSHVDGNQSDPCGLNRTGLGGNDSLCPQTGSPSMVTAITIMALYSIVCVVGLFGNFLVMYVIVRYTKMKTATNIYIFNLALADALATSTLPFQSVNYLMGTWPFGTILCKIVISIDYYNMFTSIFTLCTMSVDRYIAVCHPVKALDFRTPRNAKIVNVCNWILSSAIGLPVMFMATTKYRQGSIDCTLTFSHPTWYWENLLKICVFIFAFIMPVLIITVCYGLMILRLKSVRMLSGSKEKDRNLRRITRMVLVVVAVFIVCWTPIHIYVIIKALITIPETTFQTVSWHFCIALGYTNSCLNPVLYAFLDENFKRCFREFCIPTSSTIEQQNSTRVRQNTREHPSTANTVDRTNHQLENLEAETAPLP

CCO[C@@]12CC[C@H](N[C@@H](Cc3ccccc3)C(=O)OC(C)(C)C)[C@@H]3Oc4c(O)ccc5c4[C@@]31CCN(CC1CC1)[C@@H]2C5 [55-tBu ester]
Ki [1, 4]: 0.63 nM
Ki [2, 5]: 2.38 nM
Ki [3, 6]: 4.12 nM

CO[C@@]12CC[C@H](N[C@@H](Cc3ccccc3)C(=O)O)[C@@H]3Oc4c(O)ccc5c4[C@@]31CCN(CC1CC1)[C@@H]2C5 [Compound 57]
Ki [1, 4]: 0.51 nM
Ki [2, 5]: 1.17 nM
Ki [3, 6]: 4.21 nM

CCO[C@@]12CC[C@H](NCC(=O)O)[C@@H]3Oc4c(O)ccc5c4[C@@]31CCN(C)[C@@H]2C5 [Compound 5]
Ki [1, 7]: 0.57 nM
Ki [1, 8]: 0.57 nM
Ki [2, 9]: 10.3 nM
Ki [2, 10]: 10.3 nM
Ki [3, 11]: 45.2 nM
Ki [3, 12]: 45.2 nM

CCO[C@@]12CC[C@@H](NCC(=O)O)[C@@H]3Oc4c(O)ccc5c4[C@@]31CCN(C)[C@@H]2C5 [Compound 6]
Ki [1, 7]: 0.95 nM
Ki [1, 8]: 0.95 nM
Ki [2, 9]: 5.31 nM
Ki [2, 10]: 5.31 nM
Ki [3, 11]: 102 nM
Ki [3, 12]: 102 nM

CO[C@@]12CC[C@H](NCCC(=O)OC(C)(C)C)[C@@H]3Oc4c(O)ccc5c4[C@@]31CCN(C)[C@@H]2C5 [21-t-Bu ester]
Ki [1, 7]: 0.31 nM
Ki [2, 9]: 0.83 nM
Ki [3, 11]: 13.5 nM

CCOC(=O)CNC1CCC2(OCCCc3ccccc3)C3Cc4ccc(O)c5c4C2(CCN3C)C1O5 (stereo not drawn) [8-Et ester]
Ki [1, 13]: 0.37 nM
Ki [2, 14]: 0.21 nM
Ki [3, 15]: 0.41 nM

CO[C@@]12CC[C@H](N[C@@H](Cc3ccccc3)C(=O)OC(C)(C)C)[C@@H]3Oc4c(O)ccc5c4[C@@]31CCN(C)[C@@H]2C5 [3-t-Bu ester]
Ki [1, 13]: 0.5 nM
Ki [2, 14]: 0.93 nM
Ki [3, 15]: 32.5 nM

CCO[C@@]12CC[C@@H](NCC(=O)OC(C)(C)C)[C@@H]3Oc4c(O)ccc5c4[C@@]31CCN(C)[C@@H]2C5 [6-t-Bu ester]
Ki [1, 13]: 0.81 nM
Ki [2, 14]: 0.57 nM
Ki [3, 15]: 34.1 nM

CO[C@@]12CC[C@H](N[C@H](C(=O)N[C@@H](Cc3ccc(O)cc3)C(=O)OC(C)(C)C)C(C)C)[C@@H]3Oc4c(O)ccc5c4[C@@]31CCN(C)[C@@H]2C5 [32-t-Bu ester]
Ki [1, 7]: 0.11 nM
Ki [2, 14]: 0.17 nM
Ki [3, 15]: 3.5 nM

CN1CCC23c4c5ccc(O)c4OC2C(NCC(=O)OC(C)(C)C)CCC3(OCCCc2ccccc2)C1C5 (stereo not drawn) [7-t-Bu ester]
Ki [1, 13]: 1.4 nM
Ki [2, 14]: 1.01 nM
Ki [3, 15]: 1.26 nM

CO[C@@]12CC[C@H](N[C@@H](Cc3ccccc3)C(=O)OC(C)(C)C)[C@@H]3Oc4c(O)ccc5c4[C@@]31CCN(CC1CC1)[C@@H]2C5 [57-tBu ester]
Ki [1, 4]: 0.68 nM
Ki [2, 5]: 0.58 nM
Ki [3, 6]: 1.78 nM

CO[C@@]12CC[C@@H](N[C@@H](CO)C(=O)OC(C)(C)C)[C@@H]3Oc4c(O)ccc5c4[C@@]31CCN(C)[C@@H]2C5 [37-t-Bu ester]
Ki [1, 13]: 0.6 nM
Ki [2, 14]: 0.64 nM
Ki [3, 15]: 83.3 nM

CO[C@@]12CC[C@@H](N[C@@H](CCC(N)=O)C(=O)OC(C)(C)C)[C@@H]3Oc4c(O)ccc5c4[C@@]31CCN(C)[C@@H]2C5 [18-t-Bu ester]
Ki [1, 7]: 1.65 nM
Ki [2, 9]: 1.35 nM
Ki [3, 11]: 163 nM

CO[C@@]12CC[C@@H](N[C@@H](CCSC)C(=O)OC(C)(C)C)[C@@H]3Oc4c(O)ccc5c4[C@@]31CCN(C)[C@@H]2C5 [24-t-Bu ester]
Ki [1, 7]: 1.83 nM
Ki [2, 9]: 0.81 nM
Ki [3, 11]: 166 nM

CO[C@@]12CC[C@H](N[C@@H](CCC(=O)OC(C)(C)C)C(=O)OC(C)(C)C)[C@@H]3Oc4c(O)ccc5c4[C@@]31CCN(C)[C@@H]2C5 [19-t-Bu ester]
Ki [1, 13]: 0.27 nM
Ki [2, 14]: 0.32 nM
Ki [3, 15]: 18.3 nM

CO[C@@]12CC[C@@H](N[C@@H](CC(C)C)C(=O)OC(C)(C)C)[C@@H]3Oc4c(O)ccc5c4[C@@]31CCN(C)[C@@H]2C5 [41-t-Bu ester]
Ki [1, 7]: 0.57 nM
Ki [2, 9]: 0.42 nM
Ki [3, 11]: 240 nM

CO[C@@]12CC[C@H](N[C@@H](CC(C)C)C(=O)O)[C@@H]3Oc4c(O)ccc5c4[C@@]31CCN(C)[C@@H]2C5 [Compound 40]
Ki [1, 7]: 0.68 nM
Ki [1, 8]: 0.68 nM
Ki [2, 9]: 2.34 nM
Ki [2, 10]: 2.34 nM
Ki [3, 11]: 141 nM
Ki [3, 12]: 141 nM

CO[C@@]12CC[C@H](N[C@@H](CCSC)C(=O)O)[C@@H]3Oc4c(O)ccc5c4[C@@]31CCN(C)[C@@H]2C5 [Compound 23]
Ki [1, 7]: 0.93 nM
Ki [1, 8]: 0.93 nM
Ki [2, 9]: 4.03 nM
Ki [2, 10]: 4.03 nM
Ki [3, 11]: 109 nM
Ki [3, 12]: 109 nM

CO[C@@]12CC[C@@H](N[C@@H](CCC(=O)O)C(=O)O)[C@@H]3Oc4c(O)ccc5c4[C@@]31CCN(CC1CC1)[C@@H]2C5 [Compound 75]
Ki ([1]; Binding Ki MOR, Table 1-6, rat brain membranes): 3.35 nM
Ki [1, 4]: 3.35 nM
Ki ([2]; Binding Ki DOR, Table 1-6, rat brain membranes): 2.77 nM
Ki [2, 5]: 2.77 nM
Ki ([3]; Binding Ki KOR, Table 1-6, guinea pig brain membranes): 12.9 nM
Ki [3, 6]: 12.9 nM
